According to patent US20100119599A1 (ARCHER PHARMACEUTICALS, INC., priority 2006, published 2010):

Assays:
Aβ1-40 = experiment: Measurement of Aβ1-40 in culture medium of 7W WT APP751 CHO cells by ELISA; type: cell-based, Chinese hamster; conditions: Cricetulus griseus; Table 1; 5 μM test compound; CHO cells stably transfected with human APP751; culture medium, ELISA; control DMSO; 0 = no detectable amount
Aβ1-42 = experiment: Measurement of Aβ1-42 in culture medium of 7W WT APP751 CHO cells by ELISA; type: cell-based, Chinese hamster; conditions: Cricetulus griseus; Table 1; 5 μM test compound; CHO cells stably transfected with human APP751; culture medium, ELISA; control DMSO; 0 = no detectable amount; read-out: Aβ1-42 (% of control)
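Also: 5 µM test compound but RI-coded compounds at 10 µM for 24 hours.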

SMILES | activity at 5 µM (Aβ1-40) [%] | activity at 5 µM (Aβ1-42) [%]
CC1=C(C(=O)OCCc2ccccc2)C(c2ccc(C)cc2)C2=C(CC(C)(C)CC2=O)N1 (stereo not drawn) [ST015099, 2-phenylethyl 2,7,7-trimethyl-4-(4-methylphenyl)-5-oxo-1,4,6,7,8-pentahydroquinoline-3-carboxylate] | 14.8 | 33.8
CC1=C(C(=O)OCCOc2ccccc2)C(c2ccc3c(c2)OCO3)C2=C(CC(C)(C)CC2=O)N1 (stereo not drawn) [ST015103, 2-phenoxyethyl 4-(2H-benzo[3,4-d]1,3-dioxolan-5-yl)-2,7,7-trimethyl-5-oxo-1,4,6,7,8-pentahydroquinoline-3-carboxylate] | 35.3 | 73.5
CCCOc1ccccc1C1C(C(=O)OCCOc2ccccc2)=C(C)NC2=C1C(=O)CC(C)(C)C2 (stereo not drawn) [ST015105, 2-phenoxyethyl 2,7,7-trimethyl-5-oxo-4-(2-propoxyphenyl)-1,4,6,7,8-pentahydroquinoline-3-carboxylate] | 53 | 99.8
CC1=C(C(=O)OCCc2ccccc2)C(c2ccc(Cl)cc2)C2=C(CC(C)(C)CC2=O)N1 (stereo not drawn) [ST015106, 2-phenylethyl 4-(4-chlorophenyl)-2,7,7-trimethyl-5-oxo-1,4,6,7,8-pentahydroquinoline-3-carboxylate] | 13.2 | 0
COc1ccccc1C1C(C(=O)OCCOc2ccccc2)=C(C)NC2=C1C(=O)CC(C)(C)C2 (stereo not drawn) [ST015108, 2-phenoxyethyl 4-(2-methoxyphenyl)-2,7,7-trimethyl-5-oxo-1,4,6,7,8-pentahydroquinoline-3-carboxylate] | 33 | 92.1
COc1ccccc1C1C(C(=O)OCCc2ccccc2)=C(C)NC2=C1C(=O)CCC2 (stereo not drawn) [ST015110, 2-phenylethyl 4-(2-methoxyphenyl)-2-methyl-5-oxo-1,4,6,7,8-pentahydroquinoline-3-carboxylate] | 42.8 | 90.1
CC1=C(C(=O)OC2CCCCC2)C(c2cccc(Cl)c2)C2=C(CCCC2=O)N1 (stereo not drawn) [ST015159, cyclohexyl 4-(3-chlorophenyl)-2-methyl-5-oxo-1,4,6,7,8-pentahydroquinoline-3-carboxylate] | 2.98 | 0
CCCCCOC(=O)C1=C(C)NC2=C(C(=O)CCC2)C1c1ccccc1OCC (stereo not drawn) [ST015174, pentyl 4-(2-ethoxyphenyl)-2-methyl-5-oxo-1,4,6,7,8-pentahydroquinoline-3-carboxylate] | 17.2 | 0
COC(=O)C1=C(C)NC2=C(C(=O)CC(c3ccccc3Cl)C2)C1c1ccc([N+](=O)[O-])cc1 (stereo not drawn) [ST015176, methyl 7-(2-chlorophenyl)-2-methyl-4-(4-nitrophenyl)-5-oxo-1,4,6,7,8-pentahydroquinoline-3-carboxylate] | 17.4 | 76.4
CCN(CC)c1ccc(C2C(C(=O)OC)=C(C)NC3=C2C(=O)CC(c2ccccc2Cl)C3)cc1 (stereo not drawn) [ST015182, methyl 4-[4-(diethylamino)phenyl]-7-(2-chlorophenyl)-2-methyl-5-oxo-1,4,6,7,8-pentahydroquinoline-3-carboxylate] | 39.9 | 61.4
COC(=O)C1=C(C)NC2=C(C(=O)CC(c3ccc(Cl)cc3)C2)C1c1ccc(C)cc1 (stereo not drawn) [ST015214, methyl 7-(4-chlorophenyl)-2-methyl-4-(4-methylphenyl)-5-oxo-1,4,6,7,8-pentahydroquinoline-3-carboxylate] | 60.7 | 66.7
COC(=O)C1=C(C)NC2=C(C(=O)CC(c3ccc(Cl)cc3)C2)C1c1ccc(Cl)c(Cl)c1 (stereo not drawn) [ST015215, methyl 4-(3,4-dichlorophenyl)-7-(4-chlorophenyl)-2-methyl-5-oxo-1,4,6,7,8-pentahydroquinoline-3-carboxylate] | 23.1 | 39.8
COC(=O)C1=C(C)NC2=C(C(=O)CC(c3ccc(Cl)cc3)C2)C1c1ccccc1F (stereo not drawn) [ST015216, methyl 7-(4-chlorophenyl)-4-(2-fluorophenyl)-2-methyl-5-oxo-1,4,6,7,8-pentahydroquinoline-3-carboxylate] | 68.4 | 93.2
COC(=O)C1=C(C)NC2=C(C(=O)CC(c3ccc(Cl)cc3)C2)C1c1ccccc1 (stereo not drawn) [ST015218, methyl 7-(4-chlorophenyl)-2-methyl-5-oxo-4-phenyl-1,4,6,7,8-pentahydroquinoline-3-carboxylate] | 59.3 | 0
COCCOC(=O)C1=C(C)NC2=C(C(=O)CCC2)C1c1cccc(OC)c1 (stereo not drawn) [ST015219, 2-methoxyethyl 4-(3-methoxyphenyl)-2-methyl-5-oxo-1,4,6,7,8-pentahydroquinoline-3-carboxylate] | 83.7 | 45.8
CC1=C(C(=O)OCCc2ccccc2)C(c2ccccc2Br)C2=C(CC(c3ccccc3)CC2=O)N1 (stereo not drawn) [ST015234, 2-phenylethyl 4-(2-bromophenyl)-2-methyl-5-oxo-7-phenyl-1,4,6,7,8-pentahydroquinoline-3-carboxylate] | 51.8 | 54.8
CCOC(=O)C1=C(C)NC2=C(C(=O)CC(c3ccccc3)C2)C1c1cc(OC)ccc1OC (stereo not drawn) [ST015254, ethyl 4-(2,5-dimethoxyphenyl)-2-methyl-5-oxo-7-phenyl-1,4,6,7,8-pentahydroquinoline-3-carboxylate] | 46.9 | 33.8
CC1=C(C(=O)OCCc2ccccc2)C(c2ccc([N+](=O)[O-])cc2)C2=C(CC(c3ccccc3)CC2=O)N1 (stereo not drawn) [ST015255, 2-phenylethyl 2-methyl-4-(4-nitrophenyl)-5-oxo-7-phenyl-1,4,6,7,8-pentahydroquinoline-3-carboxylate] | 40.5 | 74.7
CCOC(=O)C1=C(C)NC2=C(C(=O)CC(c3ccc(OC)cc3)C2)C1c1ccccc1F (stereo not drawn) [ST015256, ethyl 4-(2-fluorophenyl)-7-(4-methoxyphenyl)-2-methyl-5-oxo-1,4,6,7,8-pentahydroquinoline-3-carboxylate] | 69.8 | 75.8
COC(=O)C1=C(C)NC2=C(C(=O)CC(c3ccc(Cl)cc3)C2)C1c1ccc(OCc2ccccc2)cc1 (stereo not drawn) [ST016953, methyl 7-(4-chlorophenyl)-2-methyl-5-oxo-4-[4-(phenylmethoxy)phenyl]-1,4,6,7,8-pentahydroquinoline-3-carboxylate] | 43.9 | 69.7
COc1ccc(COC(=O)C2=C(C)NC3=C(C(=O)CCC3)C2c2cccc(F)c2)cc1 (stereo not drawn) [ST016959, (4-methoxyphenyl)methyl 4-(3-fluorophenyl)-2-methyl-5-oxo-1,4,6,7,8-pentahydroquinoline-3-carboxylate] | 28.8 | 57.2
COCCOC(=O)C1=C(C)NC2=C(C(=O)CC(c3ccc(Cl)cc3)C2)C1c1ccc(Br)cc1 (stereo not drawn) [ST016960, 2-methoxyethyl 4-(4-bromophenyl)-7-(4-chlorophenyl)-2-methyl-5-oxo-1,4,6,7,8-pentahydroquinoline-3-carboxylate] | 51.5 | 76.4
COc1ccc(C2CC(=O)C3=C(C2)NC(C)=C(C(=O)OC(C)C)C3c2ccc(OCc3ccccc3)cc2)cc1 (stereo not drawn) [ST016961, methylethyl 7-(4-methoxyphenyl)-2-methyl-5-oxo-4-[4-(phenylmethoxy)phenyl]-1,4,6,7,8-pentahydroquinoline-3-carboxylate] | 41.8 | 89.5
CCOc1cc(C2C(C(=O)OCc3ccc(OC)cc3)=C(C)NC3=C2C(=O)CC(C)(C)C3)ccc1O (stereo not drawn) [ST016964, (4-methoxyphenyl)methyl 4-(3-ethoxy-4-hydroxyphenyl)-2,7,7-trimethyl-5-oxo-1,4,6,7,8-pentahydroquinoline-3-carboxylate] | 36.4 | 40
CC1=C(C(=O)OCC(C)C)C(c2cccc(Cl)c2)C2=C(CC(c3ccccc3)CC2=O)N1 (stereo not drawn) [ST016969, 2-methylpropyl 4-(3-chlorophenyl)-2-methyl-5-oxo-7-phenyl-1,4,6,7,8-pentahydroquinoline-3-carboxylate] | 30.3 | 60.2
CCc1ccc(C2C(C(=O)OCC(C)C)=C(C)NC3=C2C(=O)CC(c2ccccc2)C3)cc1 (stereo not drawn) [ST016970, 2-methylpropyl 4-(4-ethylphenyl)-2-methyl-5-oxo-7-phenyl-1,4,6,7,8-pentahydroquinoline-3-carboxylate] | 27.7 | 27.8
COCCOC(=O)C1=C(C)NC2=C(C(=O)CC(c3ccc(Cl)cc3)C2)C1c1ccc([N+](=O)[O-])cc1 (stereo not drawn) [ST016971, 2-methoxyethyl 7-(4-chlorophenyl)-2-methyl-4-(4-nitrophenyl)-5-oxo-1,4,6,7,8-pentahydroquinoline-3-carboxylate] | 27.3 | 86.2
CCOc1ccc(C2C(C(=O)OC)=C(C)NC3=C2C(=O)CC(c2ccc(OC)cc2)C3)cc1 (stereo not drawn) [ST016974, methyl 4-(4-ethoxyphenyl)-7-(4-methoxyphenyl)-2-methyl-5-oxo-1,4,6,7,8-pentahydroquinoline-3-carboxylate] | 34.6 | 57.4
CC1=C(C(=O)OCC(C)C)C(c2ccc3c(c2)OCO3)C2=C(CC(c3ccccc3)CC2=O)N1 (stereo not drawn) [ST016978, 2-methylpropyl 4-(2H-benzo[3,4-d]1,3-dioxolen-5-yl)-2-methyl-5-oxo-7-phenyl-1,4,6,7,8-pentahydroquinoline-3-carboxylate] | 45.9 | 99.5
CCCOc1ccc(C2C(C(=O)OCc3ccc(OC)cc3)=C(C)NC3=C2C(=O)CC(C)(C)C3)cc1OC (stereo not drawn) [ST016979, (4-methoxyphenyl)methyl 4-(3-methoxy-4-propoxyphenyl)-2,7,7-trimethyl-5-oxo-1,4,6,7,8-pentahydroquinoline-3-carboxylate] | 53.7 | 90.1
